In patent EP3300715A1, “USE OF DIALKYLCARBONATES OF BRANCHED ALCOHOLS AS DISPERSION AGET” (BASF SE, priority 2016, dated 2018):

Test: Pigment dispersion test: medium added dropwise to 10 g pigment until a paste forms; maximum % pigment in the medium
Format: physicochemical
Details: medium added dropwise to 10 g pigment (Eisenoxid, Titanoxid) until paste, no excess medium; compared with other media; shown in figure
Text: Es hat sich überraschend gezeigt, dass die erfindungsgemäß verwendeten Dialkylcarbonate gegenüber anderen Medien hervorragende Dispersionen mit Feststoffen bilden.
Das Experiment wurde wie folgt durchgeführt. Das Medium wurde tropfenweise zu 10 g Pigment (grau = Eisenoxid, dunkelgrau = Titanoxid), bis sich eine Paste gebildet hatte (kein Medium im Überschuss). Die folgende Rechnung entspricht der maximalen Menge Pigment in prozent, die in das jeweilige Medium gegeben werden kann: % Pigment = m(Pigment)/m(Pigment) + m(Medium) × 100 [formula]

Pigmentkonzentrationen (% Pigment, maximale Menge Pigment im Medium): höchsten Pigmentkonzentrationen
SMILES: CCCCCC(CCC)COC(=O)OCC(CCC)CCCCC (stereo not shown) [Di-(2-Propyl-1-heptyl)carbonat]
